Reference: ChEMBL document CHEMBL1150977, “A quantitative analysis of kinase inhibitor selectivity” (Nat Biotechnol, 2008)

How the values were obtained:
[1] = target: Leukocyte tyrosine kinase receptor (Homo sapiens, UniProt P29376)
[2] = target: LIM domain kinase 2 (Homo sapiens, UniProt P53671)
[3] = target: T1, Receptor-type tyrosine-protein kinase FLT3 (Homo sapiens, UniProt P36888)
T1 sequence (P36888 whole entry): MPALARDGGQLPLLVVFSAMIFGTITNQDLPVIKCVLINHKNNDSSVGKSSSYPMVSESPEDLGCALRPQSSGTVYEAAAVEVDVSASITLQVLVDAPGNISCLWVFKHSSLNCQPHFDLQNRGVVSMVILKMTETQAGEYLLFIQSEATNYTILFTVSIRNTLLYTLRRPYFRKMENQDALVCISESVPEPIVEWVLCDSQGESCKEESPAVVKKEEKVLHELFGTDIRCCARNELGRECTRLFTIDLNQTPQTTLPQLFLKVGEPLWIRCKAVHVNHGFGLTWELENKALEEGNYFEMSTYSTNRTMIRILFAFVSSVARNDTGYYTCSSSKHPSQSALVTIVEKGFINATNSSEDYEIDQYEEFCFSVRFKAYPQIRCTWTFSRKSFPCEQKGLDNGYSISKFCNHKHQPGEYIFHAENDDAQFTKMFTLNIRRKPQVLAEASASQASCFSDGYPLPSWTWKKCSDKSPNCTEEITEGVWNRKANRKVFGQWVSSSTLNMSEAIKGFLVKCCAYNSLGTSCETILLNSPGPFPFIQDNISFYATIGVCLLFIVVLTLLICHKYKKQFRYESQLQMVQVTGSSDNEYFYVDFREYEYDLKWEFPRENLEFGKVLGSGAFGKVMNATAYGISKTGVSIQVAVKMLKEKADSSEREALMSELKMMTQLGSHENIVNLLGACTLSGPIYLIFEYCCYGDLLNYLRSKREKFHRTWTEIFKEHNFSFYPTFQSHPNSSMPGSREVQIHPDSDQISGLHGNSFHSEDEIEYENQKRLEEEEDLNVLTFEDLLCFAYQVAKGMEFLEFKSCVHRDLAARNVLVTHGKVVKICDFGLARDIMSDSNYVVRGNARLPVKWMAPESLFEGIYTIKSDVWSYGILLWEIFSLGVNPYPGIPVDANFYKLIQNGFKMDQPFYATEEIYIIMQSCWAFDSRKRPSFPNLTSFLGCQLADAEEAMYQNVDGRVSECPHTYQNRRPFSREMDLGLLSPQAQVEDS

[4] = target: Macrophage colony-stimulating factor 1 receptor (Homo sapiens, UniProt P07333)
Macrophage colony-stimulating factor 1 receptor, sequence (P07333 whole entry): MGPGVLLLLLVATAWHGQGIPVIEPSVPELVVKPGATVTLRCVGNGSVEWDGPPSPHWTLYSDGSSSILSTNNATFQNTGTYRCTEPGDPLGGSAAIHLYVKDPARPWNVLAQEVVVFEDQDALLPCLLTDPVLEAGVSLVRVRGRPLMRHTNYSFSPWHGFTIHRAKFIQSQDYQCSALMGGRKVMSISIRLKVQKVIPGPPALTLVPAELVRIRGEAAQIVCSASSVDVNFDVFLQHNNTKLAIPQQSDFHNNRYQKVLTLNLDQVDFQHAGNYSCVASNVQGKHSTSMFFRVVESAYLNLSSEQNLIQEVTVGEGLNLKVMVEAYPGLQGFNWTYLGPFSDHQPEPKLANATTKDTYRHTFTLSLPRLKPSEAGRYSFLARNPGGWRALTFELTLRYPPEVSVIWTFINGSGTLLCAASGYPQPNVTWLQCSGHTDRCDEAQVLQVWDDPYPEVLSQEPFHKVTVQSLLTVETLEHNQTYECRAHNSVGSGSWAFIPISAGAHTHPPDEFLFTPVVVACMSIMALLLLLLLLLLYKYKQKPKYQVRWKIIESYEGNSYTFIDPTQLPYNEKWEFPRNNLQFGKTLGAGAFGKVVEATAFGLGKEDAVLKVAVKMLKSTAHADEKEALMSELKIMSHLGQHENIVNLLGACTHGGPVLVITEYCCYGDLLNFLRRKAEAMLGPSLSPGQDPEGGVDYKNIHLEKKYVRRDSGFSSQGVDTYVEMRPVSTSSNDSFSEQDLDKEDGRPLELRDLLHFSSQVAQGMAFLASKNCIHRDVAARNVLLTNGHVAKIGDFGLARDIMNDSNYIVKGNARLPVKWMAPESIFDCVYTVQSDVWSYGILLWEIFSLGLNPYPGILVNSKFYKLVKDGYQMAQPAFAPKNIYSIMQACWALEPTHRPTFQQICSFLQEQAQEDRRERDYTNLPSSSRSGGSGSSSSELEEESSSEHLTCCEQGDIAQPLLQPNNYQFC

[5] = target: T2, Ephrin type-A receptor 3 (Homo sapiens, UniProt P29320)
T2 sequence (P29320 whole entry): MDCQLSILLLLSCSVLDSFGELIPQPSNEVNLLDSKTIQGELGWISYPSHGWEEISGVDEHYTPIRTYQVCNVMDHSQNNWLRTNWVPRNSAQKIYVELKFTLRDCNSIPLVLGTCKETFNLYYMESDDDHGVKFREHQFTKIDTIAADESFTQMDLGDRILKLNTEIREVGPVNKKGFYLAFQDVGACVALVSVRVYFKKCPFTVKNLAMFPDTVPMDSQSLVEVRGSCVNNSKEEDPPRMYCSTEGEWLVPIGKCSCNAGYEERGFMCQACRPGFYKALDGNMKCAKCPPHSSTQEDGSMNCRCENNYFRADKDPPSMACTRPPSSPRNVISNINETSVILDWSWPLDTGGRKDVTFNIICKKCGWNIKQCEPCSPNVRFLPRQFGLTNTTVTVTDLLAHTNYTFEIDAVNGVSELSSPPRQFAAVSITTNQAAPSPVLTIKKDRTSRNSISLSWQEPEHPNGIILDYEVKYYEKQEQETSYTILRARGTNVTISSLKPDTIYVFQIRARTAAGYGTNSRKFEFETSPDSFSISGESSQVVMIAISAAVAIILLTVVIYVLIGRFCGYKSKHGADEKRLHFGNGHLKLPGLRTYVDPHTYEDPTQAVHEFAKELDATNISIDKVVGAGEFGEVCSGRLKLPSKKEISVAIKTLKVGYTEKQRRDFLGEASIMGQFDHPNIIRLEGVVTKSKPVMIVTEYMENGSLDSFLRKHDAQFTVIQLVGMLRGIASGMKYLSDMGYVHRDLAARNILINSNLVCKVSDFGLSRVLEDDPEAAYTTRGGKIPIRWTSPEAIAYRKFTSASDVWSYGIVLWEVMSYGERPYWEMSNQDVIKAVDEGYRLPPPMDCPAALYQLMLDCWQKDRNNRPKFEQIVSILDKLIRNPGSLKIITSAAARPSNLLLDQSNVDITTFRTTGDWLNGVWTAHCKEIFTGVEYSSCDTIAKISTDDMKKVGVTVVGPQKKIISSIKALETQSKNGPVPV

Measured: Kd

LIM domain kinase 2, sequence (P53671 whole entry, the tested form may be a part): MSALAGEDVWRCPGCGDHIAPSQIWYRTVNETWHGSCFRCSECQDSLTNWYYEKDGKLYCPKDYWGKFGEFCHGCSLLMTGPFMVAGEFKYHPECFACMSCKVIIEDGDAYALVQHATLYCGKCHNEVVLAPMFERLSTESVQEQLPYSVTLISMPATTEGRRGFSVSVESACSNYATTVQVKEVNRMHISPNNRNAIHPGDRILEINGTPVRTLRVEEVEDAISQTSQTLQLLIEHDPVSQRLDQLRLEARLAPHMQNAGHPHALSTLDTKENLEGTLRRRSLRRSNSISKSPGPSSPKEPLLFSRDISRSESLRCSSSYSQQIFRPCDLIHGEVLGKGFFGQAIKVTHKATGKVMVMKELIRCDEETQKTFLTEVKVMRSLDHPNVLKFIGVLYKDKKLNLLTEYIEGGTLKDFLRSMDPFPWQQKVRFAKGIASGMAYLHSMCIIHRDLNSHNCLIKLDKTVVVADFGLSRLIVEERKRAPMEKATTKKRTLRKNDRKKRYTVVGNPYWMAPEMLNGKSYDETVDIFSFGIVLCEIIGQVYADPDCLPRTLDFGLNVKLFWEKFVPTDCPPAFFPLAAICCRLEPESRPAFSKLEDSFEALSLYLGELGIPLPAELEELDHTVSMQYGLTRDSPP
Leukocyte tyrosine kinase receptor, sequence (P29376 whole entry, the tested form may be a part): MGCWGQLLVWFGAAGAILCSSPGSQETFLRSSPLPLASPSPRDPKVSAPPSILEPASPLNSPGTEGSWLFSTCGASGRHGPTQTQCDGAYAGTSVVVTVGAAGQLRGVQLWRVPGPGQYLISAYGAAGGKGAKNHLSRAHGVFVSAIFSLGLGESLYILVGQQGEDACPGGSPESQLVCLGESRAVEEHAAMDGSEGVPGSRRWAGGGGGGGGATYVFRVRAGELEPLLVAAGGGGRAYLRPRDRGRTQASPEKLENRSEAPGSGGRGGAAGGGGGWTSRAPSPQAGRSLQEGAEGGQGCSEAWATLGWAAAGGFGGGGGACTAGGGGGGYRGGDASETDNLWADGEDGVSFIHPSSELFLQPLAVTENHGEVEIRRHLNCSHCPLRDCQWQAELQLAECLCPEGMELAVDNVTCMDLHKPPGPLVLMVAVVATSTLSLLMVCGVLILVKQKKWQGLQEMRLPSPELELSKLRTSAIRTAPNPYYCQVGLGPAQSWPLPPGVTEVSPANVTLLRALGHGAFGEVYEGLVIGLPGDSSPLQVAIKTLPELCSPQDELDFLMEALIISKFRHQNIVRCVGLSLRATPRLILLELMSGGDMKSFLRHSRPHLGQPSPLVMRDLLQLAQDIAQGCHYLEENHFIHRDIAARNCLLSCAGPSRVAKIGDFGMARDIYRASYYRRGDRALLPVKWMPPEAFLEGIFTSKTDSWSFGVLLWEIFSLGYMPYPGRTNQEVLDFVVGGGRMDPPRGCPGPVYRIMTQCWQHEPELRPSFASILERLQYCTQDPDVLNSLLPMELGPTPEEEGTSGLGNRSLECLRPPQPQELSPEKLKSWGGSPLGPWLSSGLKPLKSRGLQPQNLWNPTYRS

Oc1ccc(-c2nc(-c3ccncc3)c(-c3ccc(F)cc3)[nH]2)cc1 [SB-202190]
> 10 µM: all assays above

CCN1CCN(Cc2ccc(NC(=O)Nc3ccc(Oc4cc(NC)ncn4)cc3)cc2C(F)(F)F)CC1 [AST-487]
> 10 µM: [2]

COCC(=O)NC/C=C/c1ccc2ncnc(Nc3ccc(Oc4ccc(C)nc4)c(C)c3)c2c1 [CP-724714]
> 10 µM: all assays above

Nc1nc(Nc2ccc(S(N)(=O)=O)cc2)nn1C(=O)c1c(F)cccc1F [JNJ-7706621]
> 10 µM: [1] | [5]

NC(=O)c1ccc(-c2nc(-c3ccc4c(c3)OCO4)c(-c3ccccn3)[nH]2)cc1 [SB-431542]
not listed: [3]
> 10 µM: all other assays above

CCOc1cc2ncc(C#N)c(Nc3ccc(F)c(Cl)c3)c2cc1NC(=O)/C=C/CN(C)C [PELITINIB]
> 10 µM: [1] | [2] | [3]
